# Reference: the NIST ThermoML archive (doi:10.1016/j.jct.2017.11.003)
# ± gives the expanded uncertainty stated by the source.
# Assays:
# [1] = 100 kPa, Liquid; for speed of sound: Frequency=2 MHz, Linear variable-path acoustic interferometer; for mass density: Vibrating tube method
# [2] = xn = mol fraction of the nth substance listed; conditions: 100 kPa, Liquid; for speed of sound: Frequency=2 MHz, Linear variable-path acoustic interferometer; for mass density: Vibrating tube method
Structure (SMILES),speed of sound ([1]; 293.15 K),mass density ([1]; 293.15 K),speed of sound ([1]; 298.15 K),mass density ([1]; 298.15 K),speed of sound ([1]; 303.15 K),mass density ([1]; 303.15 K),speed of sound ([1]; 308.15 K),mass density ([1]; 308.15 K),"speed of sound ([2]; 293.15 K, x2 = 0)","mass density ([2]; 293.15 K, x2 = 0)","speed of sound ([2]; 298.15 K, x2 = 0)","mass density ([2]; 298.15 K, x2 = 0)","speed of sound ([2]; 303.15 K, x2 = 0)","mass density ([2]; 303.15 K, x2 = 0)","speed of sound ([2]; 308.15 K, x2 = 0)","mass density ([2]; 308.15 K, x2 = 0)",other results
Cc1cccc(Cl)c1 [3-chlorotoluene],1313.8 ± 4 m/s,1072 ± 4 kg/m3,1296.5 ± 4 m/s,1067 ± 4 kg/m3,1279.5 ± 4 m/s,1063 ± 4 kg/m3,1261.2 ± 4 m/s,1058 ± 4 kg/m3,–,–,–,–,–,–,–,–,–
"ClCCCl [1,2-dichloroethane] + CCCCCCCCCO",–,–,–,–,–,–,–,–,–,–,–,–,–,–,–,–,"speed of sound ([2]; 293.15 K, x1 = 1): 1212.5 ± 3.9 m/s; mass density ([2]; 293.15 K, x1 = 1): 1253 ± 4 kg/m3; speed of sound ([2]; 298.15 K, x1 = 1): 1194.2 ± 3.9 m/s; mass density ([2]; 298.15 K, x1 = 1): 1246 ± 4 kg/m3; speed of sound ([2]; 303.15 K, x1 = 1): 1174.1 ± 3.9 m/s; mass density ([2]; 303.15 K, x1 = 1): 1238 ± 4 kg/m3; speed of sound ([2]; 308.15 K, x1 = 1): 1155.6 ± 3.9 m/s; mass density ([2]; 308.15 K, x1 = 1): 1231 ± 4 kg/m3"
Cc1ccc(Cl)cc1 [4-chlorotoluene],1306.4 ± 4 m/s,1069 ± 4 kg/m3,1288.2 ± 4 m/s,1065 ± 4 kg/m3,1270 ± 3.9 m/s,1060 ± 4 kg/m3,1252.1 ± 3.9 m/s,1054 ± 4 kg/m3,–,–,–,–,–,–,–,–,–
CCCCCCCCCO [nonan-1-ol] + Cc1ccccc1Cl,–,–,–,–,–,–,–,–,1380.5 ± 4 m/s,828 ± 4 kg/m3,1364.7 ± 4 m/s,824 ± 4 kg/m3,1348.1 ± 4 m/s,821 ± 4 kg/m3,1330.5 ± 4 m/s,818 ± 4 kg/m3,–
"ClCCCl [1,2-dichloroethane]",1212.5 ± 3.9 m/s,1253 ± 4 kg/m3,1194.2 ± 3.9 m/s,1246 ± 4 kg/m3,1174.1 ± 3.9 m/s,1238 ± 4 kg/m3,1155.6 ± 3.9 m/s,1231 ± 4 kg/m3,–,–,–,–,–,–,–,–,–
Cc1ccccc1Cl [2-chlorotoluene],1317 ± 4 m/s,1082 ± 4 kg/m3,1299.7 ± 4 m/s,1077 ± 4 kg/m3,1283.9 ± 4 m/s,1073 ± 4 kg/m3,1265.8 ± 4 m/s,1068 ± 4 kg/m3,–,–,–,–,–,–,–,–,–
CCCCCCCCCO [nonan-1-ol] + Cc1cccc(Cl)c1,–,–,–,–,–,–,–,–,1380.5 ± 4 m/s,828 ± 4 kg/m3,1364.7 ± 4 m/s,824 ± 4 kg/m3,1348.1 ± 4 m/s,821 ± 4 kg/m3,1330.5 ± 4 m/s,818 ± 4 kg/m3,–
CCCCCCCCCO [nonan-1-ol],1380.5 ± 4 m/s,828 ± 4 kg/m3,1364.7 ± 4 m/s,824 ± 4 kg/m3,1348.1 ± 4 m/s,821 ± 4 kg/m3,1330.5 ± 4 m/s,818 ± 4 kg/m3,–,–,–,–,–,–,–,–,–
CCCCCCCCCO [nonan-1-ol] + Cc1ccc(Cl)cc1,–,–,–,–,–,–,–,–,1380.5 ± 4 m/s,828 ± 4 kg/m3,1364.7 ± 4 m/s,824 ± 4 kg/m3,1348.1 ± 4 m/s,821 ± 4 kg/m3,1330.5 ± 4 m/s,818 ± 4 kg/m3,–
